{"source": "PubChem BioAssay AID857", "about": "(Vanderbilt High Throughput Screening Facility, 2007)", "note": "Activity calls are given as the source filed them.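 How the source made its calls: active means a full or partial dose-response curve in at least two of three replicate runs; inactive means the rest.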"}
{"biological_target": "D(1B) dopamine receptor (Homo sapiens) (UniProt P21918)", "sequence (P21918 whole entry, looked up)": "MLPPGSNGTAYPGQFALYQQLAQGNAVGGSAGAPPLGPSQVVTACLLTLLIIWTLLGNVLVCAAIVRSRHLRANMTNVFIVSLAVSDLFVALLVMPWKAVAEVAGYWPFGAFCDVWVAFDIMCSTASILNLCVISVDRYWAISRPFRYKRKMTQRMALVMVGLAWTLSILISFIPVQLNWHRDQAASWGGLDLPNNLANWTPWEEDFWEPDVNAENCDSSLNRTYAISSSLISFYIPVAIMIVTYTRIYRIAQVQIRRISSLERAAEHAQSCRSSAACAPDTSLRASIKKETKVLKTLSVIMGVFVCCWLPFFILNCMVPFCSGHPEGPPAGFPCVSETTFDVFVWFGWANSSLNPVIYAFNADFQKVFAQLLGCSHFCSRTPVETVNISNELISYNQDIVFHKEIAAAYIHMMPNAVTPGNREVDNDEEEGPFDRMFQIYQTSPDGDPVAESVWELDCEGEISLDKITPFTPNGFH", "experiment": "D5 receptor allosteric modulators, concentration-response – cell-based, HEK293, CRE-luciferase, luminescence, EC30 dopamine, selectivity assay for D1 allosteric modulator project, dose response (AID 857);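 further: HEK 293 cells expressing human D5 with a CRE-driven luciferase reporter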", "units": {"EC50": "nM"}}
{"smiles": "CC(=O)c1nn(-c2cccc(Cl)c2)cc1C(=O)c1ccco1", "outcome": "inactive"}
{"smiles": "O=C1COc2ccccc2N1Cc1ccccc1Cl", "outcome": "inactive"}
{"smiles": "C=CCn1c(SCC(=O)Nc2sc(C)c(C)c2C(=O)OCC)nnc1-c1sc(N)nc1C", "outcome": "inactive"}
{"smiles": "CCN(CCCNC(=O)CN(C)S(=O)(=O)c1cccc2nsnc12)c1cccc(C)c1", "outcome": "inactive"}
{"smiles": "CCOC(=O)C(C)Oc1cccc2c(=O)n(CC(=O)NCc3ccco3)ccc12", "note": "(configuration not stated)", "outcome": "inactive"}
{"smiles": "COC(=O)c1ccc(CSc2nc3c(cnn3-c3ccc(F)cc3)c(=O)[nH]2)o1", "outcome": "inactive"}
{"smiles": "COc1ccc(-c2csc3nc(C)n(-n4cccc4)c(=O)c23)cc1OC", "outcome": "inactive"}
{"smiles": "CCCn1c(=NC(=O)c2ccco2)c(C(=O)OCC)cc2c(=O)n3ccccc3nc21", "outcome": "inactive"}
{"smiles": "COc1nc(C)ccc1-c1noc(-c2ccncc2)n1", "outcome": "inactive"}
{"smiles": "CCOc1ccc(CC(=O)Nc2c(C(N)=O)oc3ccccc23)cc1OCC", "outcome": "inactive"}
{"smiles": "C/C=C/Cn1c(SCCCc2ccccc2)nc2c1c(=O)[nH]c(=O)n2C", "outcome": "inactive"}
{"smiles": "CSc1ccc(C2C(C#N)=C(N)N(c3ccccc3)C3=C2C(=O)CCC3)cc1", "note": "(configuration not stated)", "outcome": "inactive"}
{"smiles": "CCOC(=O)CN(C(=O)CSc1nnc(-c2ccc(OC)c(OC)c2)o1)c1ccc(F)cc1", "outcome": "inactive"}
{"smiles": "CCOc1ccc(-c2noc(COC)n2)cc1OC", "outcome": "inactive"}
{"smiles": "COc1ccc(CN(Cc2cccnc2)S(=O)(=O)c2ccc(-n3cnnn3)c(C)c2)cc1OC", "outcome": "inactive"}
{"smiles": "Cc1cc(C)n(CC(=O)n2c3c(c4ccccc42)CCCC3)n1", "outcome": "inactive"}
{"smiles": "CCOC(=O)CSc1nc2c(sc(=S)n2Cc2ccco2)c(=O)n1-c1ccccc1", "outcome": "inactive"}
{"smiles": "CCOC(=O)N1CCC(N2Cc3cccc(C(=O)NC(C)c4ccc5c(c4)OCCO5)c3C2=O)CC1", "note": "(configuration not stated)", "outcome": "inactive"}
{"smiles": "c1ccc(C2=Nn3c(nnc3-c3ccncc3)SC2)cc1", "outcome": "inactive"}
{"smiles": "CCOC(=O)C1CCCN(c2nc3ccccc3nc2C(C#N)C(=O)OCC)C1", "note": "(configuration not stated)", "outcome": "inactive"}
{"smiles": "Cc1cc(=O)oc2cc(OCC(=O)NCCc3nc4ccccc4[nH]3)ccc12", "outcome": "inactive"}
{"smiles": "COC(=O)c1cccc(S(=O)(=O)N2CCC(NC(=O)NC34CC5CC(CC(C5)C3)C4)CC2)c1", "outcome": "inactive"}
{"smiles": "CCN(CC)CCOc1c(Br)ccc2c1sc1nc3n(c(=O)c12)CCC3", "outcome": "inactive"}
{"smiles": "CCc1ccc(C2=Nn3c(nnc3-c3cccs3)SC2)cc1", "outcome": "inactive"}
{"smiles": "Cn1c(=O)c2c(SCc3ccccc3)nc(-c3ccco3)nc2n(C)c1=O", "outcome": "inactive"}
{"smiles": "O=c1[nH]c2cc3c(cc2cc1C(c1nnnn1C1CCCC1)N1CCSCC1)OCCO3", "note": "(configuration not stated)", "outcome": "inactive"}
{"smiles": "O=C(OCCCCN1C(=O)c2ccccc2C1=O)c1n[nH]c2ccccc12", "outcome": "inactive"}
{"smiles": "Cc1nc2ccc(CCO)cc2s1", "outcome": "inactive"}
{"smiles": "CCn1c(=O)c(C(=O)NCc2cccnc2)c(O)c2ccccc21", "outcome": "inactive"}
{"smiles": "O=C1C(Cl)=C(NCC2CCCO2)C(=O)N1C1CCCCC1", "note": "(configuration not stated)", "outcome": "inactive"}
{"smiles": "CCc1nc2sc3ccccc3c(=O)c2c(=O)n1Cc1ccco1", "outcome": "inactive"}
{"smiles": "Cc1[nH]n(-c2ccccc2)c(=O)c1S(=O)(=O)c1ccccc1", "outcome": "inactive"}
{"smiles": "CCOc1ccc(N/C(SC)=C(/C#N)C(N)=O)cc1", "outcome": "inactive"}
{"smiles": "CC(=O)C1=C(C)NC(SCC(=O)c2ccc(F)cc2)=C(C#N)C1c1ccco1", "note": "(configuration not stated)", "outcome": "inactive"}
{"smiles": "COc1ccc(Cn2nnc3c(=O)[nH]c(C4CCCN(C(=O)c5ccccc5)C4)nc32)cc1", "note": "(configuration not stated)", "outcome": "inactive"}
{"smiles": "CC(C)Cn1c(=O)c(C(=O)Nc2cnccn2)c(O)c2ccccc21", "outcome": "inactive"}
{"smiles": "CCSc1nc2c(c(=O)n1Cc1ccccc1)SC(C)C2", "note": "(configuration not stated)", "outcome": "inactive"}
{"smiles": "Clc1ccc(-n2nnnc2-c2ccccc2)cc1", "outcome": "inactive"}
{"smiles": "CC1CCCCN1C(=O)CSc1nc(C2CC2)nc2c1cnn2-c1ccccc1", "note": "(configuration not stated)", "outcome": "inactive"}
{"smiles": "N#CCCN1CCN(S(=O)(=O)c2ccc(S(=O)(=O)NC3CCCCC3)cc2)CC1", "outcome": "inactive"}
{"smiles": "Nc1nc(CN2CCN(c3ccccc3)CC2)nc(N2CCCc3ccccc32)n1", "outcome": "inactive"}
{"smiles": "COc1ccc2c(C(F)(F)F)cc(=O)oc2c1C", "outcome": "inactive"}
{"smiles": "O=C(CSc1nnc(COc2ccc(F)cc2)o1)N1c2ccccc2CCc2ccccc21", "outcome": "inactive"}
{"smiles": "Nc1nc(SCC(=O)OCc2ccccc2)[nH]c(=O)c1NC(=O)c1ccco1", "outcome": "inactive"}
{"smiles": "COCc1cc(C)nc2sc(C(=O)N3CCN(c4ccccc4)CC3)c(N)c12", "EC50": 212}
{"smiles": "Nc1nc(SCc2ccc3c(c2)OCCO3)n[nH]1", "outcome": "inactive"}
{"smiles": "Cc1ccc(-c2cc(-c3ccc4c(c3)OCO4)c(C#N)c(N)n2)o1", "outcome": "inactive"}
{"smiles": "CCOC(=O)c1ccc(N2CN=C3SCC(=O)N3C2)cc1", "outcome": "inactive"}
{"smiles": "CCc1ccc2oc(=O)cc(CN3CCOCC3)c2c1", "outcome": "inactive"}
{"smiles": "CCSc1nc2c(c(=O)n1CC)SC(C)C2", "note": "(configuration not stated)", "outcome": "inactive"}
{"smiles": "COc1ccc(CN(C2CCCC2)S(=O)(=O)c2ccc(-n3cnnn3)cc2)cc1OC", "outcome": "inactive"}
{"smiles": "CCOC(=O)c1c(C)c(C(=O)NCc2ccccc2OC)c(C)n1C", "outcome": "inactive"}
{"smiles": "COC(=O)c1c(-c2ccccc2)csc1NC(=O)c1ccco1", "outcome": "inactive"}
{"smiles": "CCCCn1c(O)c(C(C)=NCc2ccc(F)cc2)c(=O)[nH]c1=O", "outcome": "inactive"}
{"smiles": "COC(=O)c1ccc(C(=O)OC)c(NC(=O)COC(=O)C23CC4CC(CC(O)(C4)C2)C3)c1", "outcome": "inactive"}
{"smiles": "Cc1cccc(C2CC(c3ccc(F)cc3)Nc3nc(N)nn32)c1", "note": "(configuration not stated)", "outcome": "inactive"}
{"smiles": "O=C1c2ccccc2-c2onc3ccc(NCCCn4ccnc4)c1c23", "outcome": "inactive"}
{"smiles": "Cc1oc2ccc(OCC(N)=O)cc2c1C(=O)OC(C)C", "outcome": "inactive"}
{"smiles": "COc1ccccc1-n1c(=O)[nH]c2c(C(N)=O)nc(CC(C)C)nc21", "outcome": "inactive"}
{"smiles": "Cc1cc(C)nc(SCC(=O)N2CCCCC2)n1", "outcome": "inactive"}
{"smiles": "CCOC(=O)c1c(-c2cccs2)csc1NC(=O)CSc1ncn[nH]1", "outcome": "inactive"}
{"smiles": "CSc1oc(-c2ccco2)nc1S(=O)(=O)c1ccc(Br)cc1", "outcome": "inactive"}
{"smiles": "Cc1nnc(SCCn2c(N3CCCC(C)C3)nc3c2c(=O)[nH]c(=O)n3C)s1", "note": "(configuration not stated)", "outcome": "inactive"}
{"smiles": "Cn1c2c(c3ccccc31)CC/C2=N\\O", "outcome": "inactive"}
{"smiles": "CCC1(CC)C(=O)NC(=NCCc2c[nH]c3ccccc23)NC1=O", "outcome": "inactive"}
{"smiles": "Brc1ccc(-c2nn3c(Cc4ccccc4)nnc3s2)o1", "outcome": "inactive"}
{"smiles": "CSc1ccccc1NC(=O)c1onc(C)c1Cl", "outcome": "inactive"}
{"smiles": "CCOc1nc(NCCc2ccc(OC)c(OC)c2)nc(NC(C)(C)CO)n1", "outcome": "inactive"}
{"smiles": "CCn1c(SCC(=O)Nc2ccccc2N2CCCCC2)nc2c1c(=O)n(C)c(=O)n2C", "outcome": "inactive"}
{"smiles": "COc1ccc2[nH]c(=O)c(CN(Cc3cccs3)Cc3nnnn3C(C)(C)C)cc2c1", "outcome": "inactive"}
{"smiles": "CC(=O)c1cc(C#N)c(SCC(=O)OC(C)(C)C)nc1C", "outcome": "inactive"}
{"smiles": "COC(=O)c1c(NC(=O)Cc2cccs2)sc2c1CCC(C)C2", "note": "(configuration not stated)", "outcome": "inactive"}
{"smiles": "COc1ccc(OC)c(C2=NOC(C(=O)Nc3cccc(C(C)=O)c3)C2)c1", "note": "(configuration not stated)", "outcome": "inactive"}
{"smiles": "N#Cc1nc(-c2cccs2)oc1NCC1CCCO1", "note": "(configuration not stated)", "outcome": "inactive"}
{"smiles": "CCc1nnc(NC(=O)CSc2ncc(-c3ccccc3)n2CC)s1", "outcome": "inactive"}
{"smiles": "COc1ccc(N2C(=O)C3CCCN3C2c2ccccc2)cc1Cl", "note": "(configuration not stated)", "outcome": "inactive"}
{"smiles": "C=CCNC(=O)C1CC(c2cccc(OC)c2)=NO1", "note": "(configuration not stated)", "outcome": "inactive"}
